# Measurements from patent US20240033328A1, “ACTH IN THE TREATMENT OF AN ADRENOCORTICOTROPIC HORMONE RESPONSIVE PEDIATRIC DISORDER” (Amzell B.V., priority 2020, published 2024).
# Key:
# Format in all cases: in vivo, healthy adult subjects
# [1] = Phase 1 single ascending dose study: immunogenicity (antidrug antibodies); settings: single IM dose; consistent with that observed for H.P. Acthar Gel
# Method: (§1) Subjects who met all of the inclusion criteria and none of the exclusion criteria were enrolled in the study. Safety and tolerability were evaluated throughout the study, including all adverse events (AEs); physical examination findings; vital sign measurements; 12-lead electrocardiogram (ECG) findings; standard clinical laboratory measurements (eg, serum chemistry, hematology, and urinalysis); and injection site evaluations. Immunogenicity, as measured by antidrug antibodies (ADA) were evaluated. PD effects were assessed based on levels of cortisol and an adrenal panel of intermediates (dehydroepiandrosterone [DHA], 17-hydroxypregnenolone, and 17 hydroxyprogesterone). Blood samples for measurement of syn-ACTH concentrations were also collected (AMZ002 cohorts only).
# Blood samples for evaluation of immunogenicity as measured by ADA were obtained at the Treatment Visit (Day 1) (predose), prior to discharge (Day 3), the Follow-Up Visit (Day 8 [+2 days])/Early Termination Visit, and subsequent visits for collection of ADA (Day 15 [+2 days] and Day 29 [+2 days]).
# [2] = Phase 1 single ascending dose study: safety and tolerability; settings: for safety and tolerability: single IM doses 0.15 mg to 0.75 mg
# Method: as §1
# Safety parameters included all AEs; physical examination findings; vital sign measurements; 12-lead ECG findings; standard clinical laboratory measurements (eg, serum chemistry, hematology, and urinalysis); and injection site evaluations.
# [3] = test system: cortisol and an adrenal panel of intermediates (DHA, 17-hydroxypregnenolone, 17-hydroxyprogesterone); assay: Phase 1 single ascending dose study: pharmacodynamics (plasma cortisol and adrenal panel of intermediates)
# Method: This was a Phase 1, single-blind, active-controlled, single ascending dose study to compare the PD effects of the investigational drug AMZ002 with those of H.P. Acthar Gel and Cortrosyn in healthy adult subjects. AMZ002 is a sterile solution for IM injection, formulated to contain 0.5 mg/mL ACTH having the sequence […] Phe, 50 mg/mL dextrose, 10 mg/mL sodium carboxymethylcellulose, and 5 mg/mL phenol (pH 6.4). The concentration of 0.5 mg/mL was chosen to reduce possible errors resulting from the preparation of small dose volumes (e.g., less than 0.4 ml).
# The study consisted of 8 cohorts, with 8 subjects per cohort (each a single dose): Cortrosyn 0.25 mg; H.P. Acthar Gel 25 U; or, in an ascending dose fashion, AMZ002 0.15, 0.20, 0.25, 0.30, 0.50, or 0.75 mg. The investigational product (AMZ002) and active comparators (Cortrosyn and H.P. Acthar Gel) were administered via intramuscular (IM) injection to the upper arm. The dose of Cortrosyn (0.25 mg by IM administration), the active control, was intended to produce maximal adrenal stimulation. This is the standard dose for adults and children ≥2 years of age recommended in the 2015 Endocrine Society Clinical Practice Guidelines for diagnostic testing of adrenal insufficiency (same dose whether Cortrosyn is administered intravenously or IM). […] Since 25 U of natural ACTH was expected to elicit […] adrenal response, it was considered the most sensitive dose to determine a pharmacodynamically equivalent dose of AMZ002 in this study. Therefore, this study included a cohort of subjects who received a single dose of 25 U H.P. Acthar Gel (representing the target PD for the investigational drug product in this study).
# On Day-1, a single standard dose of dexamethasone (1 mg) was administered orally at approximately midnight (8 hours prior to study drug administration the following day) to suppress endogenous adrenocorticotropic hormone (ACTH) production and remove this as a confounding variable in the measurements. […]
# For each PD (pharmacodynamics) analyte (plasma cortisol and an adrenal panel of intermediates [DHA, 17-hydroxypregnenolone, and 17-hydroxyprogesterone]), the following parameters were calculated with the actual time points using a noncompartmental method as appropriate: • Maximum observed PD measurement (Emax); • Time to reach maximum observed PD measurement (TEmax); and • Area under the PD effect-time curve from time 0 to the last quantifiable PD measurement (AUEC0−t).
# The PD parameters using baseline-corrected PD measurements were calculated similarly, if applicable. […] The following parameters were also calculated using baseline-corrected PD measurements: • Area under the PD effect-time curve that was above baseline (AUECabove B); and • Total time that response was≥baseline (Timeabove B). […]
# [4] = Phase 1 single ascending dose study: plasma pharmacokinetics of syn-ACTH
# Method: as §1
# Blood samples were collected prior to dosing on Day 1; at 5, 15, 30, and 45 minutes postdose; and at 1, 1.5, 2, 2.5, 3, 4, 5, 6, 8, 10, 12, 24, 30, 36, and 48 hours postdose.
# The following plasma PK (pharmacokinetics) parameters of syn-ACTH were calculated from individual syn-ACTH concentration data for each cohort: • Maximum plasma concentration (Cmax) if the maximum value occurred at more than 1 time point, Cmax was defined as the first value; • Time to Cmax (Tmax); • Terminal elimination constant rate (λz); • Terminal elimination half-life (t1/2), calculated as ln(2)/λz; • AUC from time 0 to the last quantifiable plasma concentration (Clast) (AUClast); • AUC from time 0 to infinity (AUCinf);
# Proportion of AUCinf due to extrapolation (%)(AUCextr), calculated as 100×(Clast/λz)/AUCinf; • Apparent clearance (CL/F); calculated as Dose/AUCinf; and • Apparent volume of distribution (Vz/F), calculated as Dose/[λz×AUCinf].
substance,measurement,setting,value
H-SYSMEHFRWGKPVGKKRRPVKVYPNGAEDELAEAFPLEF-OH [AMZ002],incidence of antibody formation (minimum of 1 positive postdose result),[1],low
same,"deaths, treatment-emergent SAEs, withdrawals due to a TEAE",[2]; single IM doses,"no deaths, treatment-emergent serious adverse events (SAEs), or withdrawals due to a treatment emergent adverse event (TEAE)"
same,severity of TEAEs,[2]; single IM doses,mild or moderate
same,safety and tolerability,[2],safe and well tolerated
same,safety and tolerability,[2]; listed as ACTH having SEQ ID NO:1,generally safe and well tolerated
same,"cortisol response compared to 25 U H.P. Acthar Gel, highest levels","[3]; highest dose levels within 0.15 to 0.75 mg, single IM dose, FIG. 1",slightly greater and more sustained effects
same,"cortisol response compared to 25 U H.P. Acthar Gel, lowest levels","[3]; lowest dose levels within 0.15 to 0.75 mg, single IM dose, FIG. 1",maximal effect that is less sustained
same,"DHA response, lower levels compared to higher levels","[3]; single IM dose 0.15 to 0.75 mg, FIG. 2",maximal effect that is less sustained
same,"17-hydroxypregnenolone response, lower levels compared to higher levels","[3]; single IM dose 0.15 to 0.75 mg, FIG. 3",maximal effect that is less sustained
same,half-life,"[4]; human, plasma, single IM dose, range across dose cohorts, read-out: mean t½",0.911 to 2.59 h
same,Tmax,"[4]; human, plasma, single IM dose, range across dose cohorts, read-out: median Tmax",0.08 to 2 h
same,absorption,[4]; single IM dose,rapidly absorbed
same,time to mean peak plasma concentrations after dosing,[4]; single IM dose,≤ 2 h
same,increase of exposure with increase in dose,[4]; single IM dose 0.15 to 0.75 mg,greater than proportional
